Earlier results, collected in patent US20070009558A1, “Sugar-free storage-stable antihistaminic syrups” (priority 2004, published 2007).
Read-outs that look alike come from different tables or passages of the source.

Clc1ccc2c(c1)CCc1cccnc1C2=C1CCNCC1 [Desloratadine, 8-chloro-6,11-dihydro-11-(4-piperdinylidene)-5H-benzo[5,6]cyclohepta[1 ,2-b]pyridine]
solubility (in ethanol): very soluble | solubility (in propylene glycol): very soluble | solubility (in water): slightly soluble
